How the values were obtained:
Assay in all cases: relative viability (nuclei count vs DMSO), 5 days (fraction); higher = more cells survive
CAP-232 + Pemetrexed = compound: C[C@H]([C@@H](C(=O)N)NC(=O)[C@@H]1CSSC[C@@H](C(=O)N[C@H](C(=O)N[C@@H](C(=O)N[C@H](C(=O)N1)CCCCN)CC2=CNC3=CC=CC=C32)CC4=CC=C(C=C4)O)NC(=O)[C@@H](CC5=CC=CC=C5)N)O [CAP-232] + Nc1nc2[nH]cc(CCc3ccc(C(=O)N[C@@H](CCC(=O)O)C(=O)O)cc3)c2c(=O)[nH]1 [Pemetrexed] (partner 0.2 µM)
Procedure, shortened: (§1)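 Each reported value is a median over duplicate plates. It expresses relative viability: treated-well nuclei count divided by vehicle-well nuclei count. Lung cancer cell lines in 1536-well plates were dosed by pin tool a day after seeding, alone with one drug or with a fixed anchor-drug dose plus five library-drug doses (not always all listed) in √10 steps, and nuclei were counted after 5 days.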

CAP-232 + Palbociclib = compound: C[C@H]([C@@H](C(=O)N)NC(=O)[C@@H]1CSSC[C@@H](C(=O)N[C@H](C(=O)N[C@@H](C(=O)N[C@H](C(=O)N1)CCCCN)CC2=CNC3=CC=CC=C32)CC4=CC=C(C=C4)O)NC(=O)[C@@H](CC5=CC=CC=C5)N)O [CAP-232] + CC(=O)c1c(C)c2cnc(Nc3ccc(N4CCNCC4)cn3)nc2n(C2CCCC2)c1=O [Palbociclib] (partner 0.5 µM)
Procedure, shortened: as §1

CAP-232 + Pictilisib = compound: C[C@H]([C@@H](C(=O)N)NC(=O)[C@@H]1CSSC[C@@H](C(=O)N[C@H](C(=O)N[C@@H](C(=O)N[C@H](C(=O)N1)CCCCN)CC2=CNC3=CC=CC=C32)CC4=CC=C(C=C4)O)NC(=O)[C@@H](CC5=CC=CC=C5)N)O [CAP-232] + CS(=O)(=O)N1CCN(Cc2cc3nc(-c4cccc5[nH]ncc45)nc(N4CCOCC4)c3s2)CC1 [Pictilisib] (partner 1 µM)
Procedure, shortened: as §1

CAP-232 + Bortezomib = compound: C[C@H]([C@@H](C(=O)N)NC(=O)[C@@H]1CSSC[C@@H](C(=O)N[C@H](C(=O)N[C@@H](C(=O)N[C@H](C(=O)N1)CCCCN)CC2=CNC3=CC=CC=C32)CC4=CC=C(C=C4)O)NC(=O)[C@@H](CC5=CC=CC=C5)N)O [CAP-232] + CC(C)C[C@H](NC(=O)[C@H](Cc1ccccc1)NC(=O)c1cnccn1)B(O)O [Bortezomib] (partner 0.002 µM)
Procedure, shortened: as §1

CAP-232 + Lapatinib = compound: C[C@H]([C@@H](C(=O)N)NC(=O)[C@@H]1CSSC[C@@H](C(=O)N[C@H](C(=O)N[C@@H](C(=O)N[C@H](C(=O)N1)CCCCN)CC2=CNC3=CC=CC=C32)CC4=CC=C(C=C4)O)NC(=O)[C@@H](CC5=CC=CC=C5)N)O [CAP-232] + CS(=O)(=O)CCNCc1ccc(-c2ccc3ncnc(Nc4ccc(OCc5cccc(F)c5)c(Cl)c4)c3c2)o1 [Lapatinib] (partner 2 µM)
Procedure, shortened: as §1

Cell Line	relative viability (CAP-232 + Pemetrexed; first compound 0.4 µM)	relative viability (CAP-232 + Pemetrexed; first compound 1.265 µM)	relative viability (CAP-232 + Pemetrexed; first compound 4 µM)	relative viability (CAP-232 + Pemetrexed; first compound 12.65 µM)	relative viability (CAP-232 + Palbociclib; first compound 0.4 µM)	relative viability (CAP-232 + Palbociclib; first compound 1.265 µM)	relative viability (CAP-232 + Palbociclib; first compound 4 µM)	relative viability (CAP-232 + Palbociclib; first compound 12.65 µM)	relative viability (CAP-232 + Pictilisib; first compound 0.4 µM)	relative viability (CAP-232 + Pictilisib; first compound 1.265 µM)	relative viability (CAP-232 + Pictilisib; first compound 4 µM)	relative viability (CAP-232 + Pictilisib; first compound 12.65 µM)	relative viability (CAP-232 + Bortezomib; first compound 0.4 µM)	relative viability (CAP-232 + Bortezomib; first compound 1.265 µM)	relative viability (CAP-232 + Bortezomib; first compound 4 µM)	relative viability (CAP-232 + Bortezomib; first compound 12.65 µM)	relative viability (CAP-232 + Lapatinib; first compound 0.4 µM)	relative viability (CAP-232 + Lapatinib; first compound 1.265 µM)	relative viability (CAP-232 + Lapatinib; first compound 4 µM)	relative viability (CAP-232 + Lapatinib; first compound 12.65 µM)
NCI-H838	0.254	0.26	0.245	0.261	0.228	0.205	0.237	0.212	0.439	0.357	0.475	0.345	0.916	0.643	0.86	0.544	0.976	0.974	1.14	0.499
NCI-H1355	1.03	0.946	1.19	1	0.42	0.413	0.432	0.343	0.365	0.464	0.497	0.521	1.27	1.22	1.39	1.24	1.11	1.06	1.19	1.01
NCI-H1437	0.299	0.288	0.33	0.321	0.293	0.312	0.315	0.303	0.38	0.426	0.515	0.279	0.604	0.584	0.598	0.521	0.806	0.853	0.795	0.583
NCI-H1650	0.436	0.385	0.451	0.336	0.306	0.304	0.38	0.243	0.636	0.578	0.535	0.154	0.196	0.209	0.214	0.117	0.737	0.788	0.966	0.214
NCI-H1651	0.686	0.514	0.676	0.709	0.561	0.525	0.511	0.522	0.666	0.685	0.624	0.368	1.01	0.939	1.02	0.953	0.944	0.834	0.913	0.484
NCI-H1666	0.911	0.887	0.984	0.874	0.715	0.636	0.655	0.67	0.44		0.356	0.248	0.759		0.952	0.393	0.687		0.65	0.378
NCI-H1734	0.44	0.402	0.402	0.307	0.34	0.336	0.368	0.233	0.393	0.44	0.455	0.462	0.919	0.902	1.06	0.74	1	1	0.95	0.73
